Measured values as given in ChEMBL document CHEMBL1127110, “Novel polyamide inducers of HL-60 cellular differentiation” (Bioorg Med Chem Lett, 1993).

Test system: HL-60
Test: The compound was evaluated in vitro for cytotoxicity against HL-60 cell lines
Type: functional, cell-based
Conditions: Homo sapiens

`CC(=O)NCCCN(CCCCN(CCCNC(C)=O)C(C)=O)C(C)=O` and `CC(=O)NCCCCN(CCCNC(C)=O)C(C)=O` cannot be ordered by IC50: over 16 mM for the first, over 16 mM for the second.

First: CC(=O)NCCC(=O)NCCNC(=O)CCNC(C)=O
Second: CC(=O)NCCNC(=O)CCNC(C)=O
The IC50 of the first is lower: 6 mM for the first, over 16 mM for the second.

In the case of `CC(=O)NCCCCCCNC(C)=O` [HEXAMETHYLENEBISACETAMIDE], the IC50 is reported as 4 mM.
